Measurements published in article PMC6253949, “The Inhibitory Action of Kohamaic Acid A Derivatives on Mammalian DNA Polymerase β” (Molecules, 2008).

Assays:
Human DNA polymerase κ = molecular target: T1, Human DNA polymerase κ (Homo sapiens, UniProt Q9UBT6); experiment: DNA polymerase assay, human pol κ; format: biochemical
T1 construct: A truncated form of pol κ (i.e., hDINB1DC); 6xHis (C); made in house; host or cells: baculovirus expression system (insect cells)
T1 sequence (Q9UBT6 1-560 limits assumed): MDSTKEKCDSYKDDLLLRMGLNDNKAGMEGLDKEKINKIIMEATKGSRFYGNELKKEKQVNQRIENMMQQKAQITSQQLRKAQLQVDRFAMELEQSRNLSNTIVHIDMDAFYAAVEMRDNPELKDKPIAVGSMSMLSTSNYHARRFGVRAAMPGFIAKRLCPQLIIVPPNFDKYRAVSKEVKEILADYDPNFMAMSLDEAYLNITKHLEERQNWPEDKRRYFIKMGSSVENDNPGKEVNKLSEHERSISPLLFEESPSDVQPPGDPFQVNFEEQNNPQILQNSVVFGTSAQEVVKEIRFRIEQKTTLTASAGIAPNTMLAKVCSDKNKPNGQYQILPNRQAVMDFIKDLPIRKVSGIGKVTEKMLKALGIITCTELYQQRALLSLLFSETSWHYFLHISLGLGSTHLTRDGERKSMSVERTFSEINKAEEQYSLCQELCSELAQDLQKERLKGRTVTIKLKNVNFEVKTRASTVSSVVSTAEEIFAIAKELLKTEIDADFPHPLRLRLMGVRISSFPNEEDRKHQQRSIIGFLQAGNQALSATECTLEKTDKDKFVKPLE
Description: (§1) Pol α was purified from calf thymus by immuno-affinity column chromatography as described by Tamai et al.. Recombinant rat pol β was purified from E. coli JMpβ5 as described by Date et al.. The human pol γ catalytic gene was cloned into pFastBac. Histidine-tagged enzyme was expressed using the BAC-TO-BAC HT Baculovirus Expression System according to the supplier's manual (LIFE TECHNOLOGIES, MD, USA) and purified using ProBoundresin (Invitrogen Japan, Tokyo, Japan). Human pols δ and ε were purified by the nuclear fractionation of human peripheral blood cancer cells (Molt-4) using the second subunit of pols δ and ε-conjugated affinity column chromatography, respectively. Recombinant human pols η and ι tagged with His6 at their C-terminal were expressed in SF9 insect cells using the baculovirus expression system, and were purified as described previously. A truncated form of pol κ (i.e., hDINB1DC) with 6 x His-tags attached at the C-terminal was overproduced using the BAC-to-BAC Baculovirus Expression System kit (GIBCO BRL, MD, USA) and purified as described previously. […]
(§2) For pols, poly(dA)/oligo(dT)12-18 (A/T = 2/1) and dTTP were used as the DNA template-primer and nucleotide (i.e., dNTP) substrate, respectively. […] Activity without the inhibitor was considered 100%, and the remaining activity at each concentration of the inhibitor was determined relative to this value. […]

Human DNA polymerase λ = molecular target: T2, Human DNA polymerase λ (Homo sapiens, UniProt Q9UGP5); experiment: DNA polymerase assay, human pol λ; format: biochemical
T2 construct: His tag; made in house; host or cells: E. coli (from the title of the cited method)
T2 sequence (Q9UGP5 1-575): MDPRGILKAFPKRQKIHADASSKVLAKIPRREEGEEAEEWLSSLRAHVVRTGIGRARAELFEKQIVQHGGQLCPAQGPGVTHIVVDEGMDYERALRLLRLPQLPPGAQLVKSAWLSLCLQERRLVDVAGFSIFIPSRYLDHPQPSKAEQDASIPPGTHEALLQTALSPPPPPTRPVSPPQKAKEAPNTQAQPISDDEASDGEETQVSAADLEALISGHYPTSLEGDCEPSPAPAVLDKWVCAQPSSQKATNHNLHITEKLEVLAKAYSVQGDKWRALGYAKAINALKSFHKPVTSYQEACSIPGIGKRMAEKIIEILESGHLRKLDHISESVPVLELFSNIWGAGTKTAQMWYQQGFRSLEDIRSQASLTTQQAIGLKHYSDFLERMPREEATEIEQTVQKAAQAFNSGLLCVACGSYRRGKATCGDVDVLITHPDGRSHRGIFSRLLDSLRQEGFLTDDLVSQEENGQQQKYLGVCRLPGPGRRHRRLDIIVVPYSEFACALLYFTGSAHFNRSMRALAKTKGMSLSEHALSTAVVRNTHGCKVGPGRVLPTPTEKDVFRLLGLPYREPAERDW
Description: as §1, §2

[1] = molecular target: Calf Primase of DNA polymerase α (Bos taurus, UniProt A0A3Q1MF00+A0JNF4); experiment: Primase activity assay of calf pol α; format: biochemical
Experimental: (§3) The primase activity of calf pol α, the activities of T7 RNA polymerase, T4 polynucleotide kinase and bovine DNase I were measured in standard assays according to the manufacturer's specifications as described by Tamiya-Koizumi et al., Nakayama et al., Soltis et al., and Lu and Sakaguchi, respectively.

[2] = molecular target: T3, Bovine Deoxyribonuclease I (Bos taurus, UniProt P00639); experiment: Deoxyribonuclease I assay; format: biochemical
T3 construct: Bovine pancreas deoxyribonuclease I (DNase I) was obtained from Stratagene Cloning Systems; purchased Stratagene Cloning Systems (La Jolla, CA, USA); host or cells: bovine pancreas
Description: as §1, §3

[3] = tested on: double-stranded DNA (dsDNA); experiment: Thermal transition (Tm) of double-stranded DNA; format: binding; settings: compound 11 at 200 μM; data not shown
Experimental: The Tm of dsDNA with an excess amount of compound 11 (200 μM) was measured using a spectrophotometer equipped with a thermoelectric cell holder.

Calf Primase of DNA polymerase α, sequence (A0AAA9THK8 entry or part of it): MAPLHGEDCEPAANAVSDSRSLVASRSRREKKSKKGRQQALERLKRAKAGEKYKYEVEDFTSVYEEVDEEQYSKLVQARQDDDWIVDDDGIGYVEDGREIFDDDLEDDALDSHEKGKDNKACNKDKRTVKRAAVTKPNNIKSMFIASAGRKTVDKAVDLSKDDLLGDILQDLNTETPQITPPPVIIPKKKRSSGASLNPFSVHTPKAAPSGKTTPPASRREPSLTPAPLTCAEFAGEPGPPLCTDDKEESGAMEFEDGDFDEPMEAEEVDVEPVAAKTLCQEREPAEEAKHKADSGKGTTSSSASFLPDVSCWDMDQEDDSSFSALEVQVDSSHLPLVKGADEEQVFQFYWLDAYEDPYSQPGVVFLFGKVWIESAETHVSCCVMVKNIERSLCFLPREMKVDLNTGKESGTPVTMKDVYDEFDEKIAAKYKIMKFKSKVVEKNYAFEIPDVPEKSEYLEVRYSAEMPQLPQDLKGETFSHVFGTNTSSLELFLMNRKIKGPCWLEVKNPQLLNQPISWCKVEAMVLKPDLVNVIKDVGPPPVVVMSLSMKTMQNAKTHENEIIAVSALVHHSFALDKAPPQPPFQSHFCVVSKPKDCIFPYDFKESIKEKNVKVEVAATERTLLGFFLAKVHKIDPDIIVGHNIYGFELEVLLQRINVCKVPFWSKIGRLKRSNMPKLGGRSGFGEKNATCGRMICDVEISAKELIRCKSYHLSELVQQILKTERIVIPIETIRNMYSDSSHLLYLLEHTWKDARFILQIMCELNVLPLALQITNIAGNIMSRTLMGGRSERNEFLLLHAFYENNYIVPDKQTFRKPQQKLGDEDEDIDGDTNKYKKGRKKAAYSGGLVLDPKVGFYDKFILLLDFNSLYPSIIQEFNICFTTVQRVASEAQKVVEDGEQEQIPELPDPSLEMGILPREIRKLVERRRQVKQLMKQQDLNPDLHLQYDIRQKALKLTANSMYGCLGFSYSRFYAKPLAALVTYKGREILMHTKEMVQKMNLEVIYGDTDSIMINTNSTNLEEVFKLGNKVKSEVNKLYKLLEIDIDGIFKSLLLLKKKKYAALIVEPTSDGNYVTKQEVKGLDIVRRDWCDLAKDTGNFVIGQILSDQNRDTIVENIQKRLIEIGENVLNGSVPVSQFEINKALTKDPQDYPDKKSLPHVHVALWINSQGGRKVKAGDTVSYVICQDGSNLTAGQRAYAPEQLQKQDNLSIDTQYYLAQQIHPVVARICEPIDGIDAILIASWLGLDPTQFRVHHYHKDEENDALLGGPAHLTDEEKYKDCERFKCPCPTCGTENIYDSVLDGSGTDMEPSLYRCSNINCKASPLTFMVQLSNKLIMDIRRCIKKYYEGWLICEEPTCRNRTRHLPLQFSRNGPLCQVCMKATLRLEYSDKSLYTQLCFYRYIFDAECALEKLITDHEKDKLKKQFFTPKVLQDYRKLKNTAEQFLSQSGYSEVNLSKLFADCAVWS
Calf Primase of DNA polymerase α, sequence (A0JNF4 entry or part of it): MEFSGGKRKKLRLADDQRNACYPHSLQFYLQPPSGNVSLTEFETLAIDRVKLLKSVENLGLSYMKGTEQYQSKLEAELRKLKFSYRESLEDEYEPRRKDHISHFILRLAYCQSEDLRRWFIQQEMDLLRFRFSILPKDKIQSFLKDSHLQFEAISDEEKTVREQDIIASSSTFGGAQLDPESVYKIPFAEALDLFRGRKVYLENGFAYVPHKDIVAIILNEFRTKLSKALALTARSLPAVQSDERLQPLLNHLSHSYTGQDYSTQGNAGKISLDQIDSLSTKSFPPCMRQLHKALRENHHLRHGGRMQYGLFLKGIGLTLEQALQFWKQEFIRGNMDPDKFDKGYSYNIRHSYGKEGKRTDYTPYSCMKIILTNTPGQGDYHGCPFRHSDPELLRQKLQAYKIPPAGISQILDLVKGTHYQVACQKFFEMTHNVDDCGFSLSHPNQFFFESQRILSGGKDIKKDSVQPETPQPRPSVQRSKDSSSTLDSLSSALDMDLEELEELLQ
Calf Primase of DNA polymerase α, sequence (Q58D13 whole entry, further chain): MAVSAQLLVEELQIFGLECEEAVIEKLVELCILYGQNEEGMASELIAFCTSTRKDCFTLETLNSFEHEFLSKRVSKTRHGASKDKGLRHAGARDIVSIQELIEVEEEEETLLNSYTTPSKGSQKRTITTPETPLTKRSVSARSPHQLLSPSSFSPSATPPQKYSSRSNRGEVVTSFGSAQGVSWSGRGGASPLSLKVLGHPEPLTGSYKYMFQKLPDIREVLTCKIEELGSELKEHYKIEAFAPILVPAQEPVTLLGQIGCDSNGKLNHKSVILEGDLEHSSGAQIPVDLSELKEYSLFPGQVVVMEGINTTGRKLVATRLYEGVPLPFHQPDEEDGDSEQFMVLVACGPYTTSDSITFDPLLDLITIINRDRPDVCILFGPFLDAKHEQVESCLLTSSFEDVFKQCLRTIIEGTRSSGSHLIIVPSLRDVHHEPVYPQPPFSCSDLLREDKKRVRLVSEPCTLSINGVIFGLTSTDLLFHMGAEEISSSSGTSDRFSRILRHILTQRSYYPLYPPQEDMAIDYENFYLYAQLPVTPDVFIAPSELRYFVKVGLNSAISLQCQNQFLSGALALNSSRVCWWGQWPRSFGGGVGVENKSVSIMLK
Calf Primase of DNA polymerase α, sequence (A0A3Q1MF00 entry or part of it): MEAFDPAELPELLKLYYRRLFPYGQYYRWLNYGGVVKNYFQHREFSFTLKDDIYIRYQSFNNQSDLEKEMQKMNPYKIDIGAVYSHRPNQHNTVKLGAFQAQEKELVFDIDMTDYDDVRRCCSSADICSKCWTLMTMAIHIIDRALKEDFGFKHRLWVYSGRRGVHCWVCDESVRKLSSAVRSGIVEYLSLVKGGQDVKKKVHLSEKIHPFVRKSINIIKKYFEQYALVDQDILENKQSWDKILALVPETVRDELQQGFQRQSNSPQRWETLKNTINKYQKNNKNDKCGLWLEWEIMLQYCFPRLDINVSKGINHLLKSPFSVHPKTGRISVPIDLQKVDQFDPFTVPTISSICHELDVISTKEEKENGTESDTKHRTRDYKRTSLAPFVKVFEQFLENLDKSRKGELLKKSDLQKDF
T3 sequence (P00639 23-282): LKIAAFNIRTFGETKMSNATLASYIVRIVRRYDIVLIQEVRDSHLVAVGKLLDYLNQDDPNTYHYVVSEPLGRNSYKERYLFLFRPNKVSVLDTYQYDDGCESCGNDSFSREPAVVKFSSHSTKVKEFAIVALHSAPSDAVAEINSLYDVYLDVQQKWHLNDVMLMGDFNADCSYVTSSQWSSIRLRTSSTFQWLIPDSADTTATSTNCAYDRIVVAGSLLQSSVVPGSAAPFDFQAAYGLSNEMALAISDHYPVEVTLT

`CC1=CC[C@H]2C(C)(C)CCC[C@]2(C)[C@H]1CCCCCCCCCCCCCCCCC(=O)O` (relative stereo) [compound 11, (1S*,4aS*,8aS*)-17-(1,4,4a,5,6,7,8,8a-octahydro-2,5,5,8a-tetramethylnaphthalen-1-yl)heptadecanoic acid] was tested, and the IC50 (Human DNA polymerase κ) was 7.2 ± 0.36 µM, the IC50 (Human DNA polymerase λ) was 4.67 ± 0.23 µM and the “Kinetic mode of inhibition” value (Human DNA polymerase λ; with respect to both the DNA template-primer and the dNTP substrate) was “competitive”. The IC50 [1] was greater than 200 µM, the IC50 [2] was greater than 200 µM and the “Thermal transition of Tm of dsDNA” value [3] was “no thermal transition of Tm was observed”.
